From article PMC4859512, “Polyamino-Isoprenic Derivatives Block Intrinsic Resistance of P. aeruginosa to Doxycycline and Chloramphenicol In Vitro” (PLoS ONE, 2016)
Where “and” joins values, the source holds several entries; their conditions need not be identical. Identical values can stand only once.

Experiments:
[1] = system: twenty clinical isolates of P. aeruginosa; experiment: Combined antibiotic / polyamino-isoprenic derivative on MH agar plates, clinical isolates; format: cell-based, Pseudomonas aeruginosa; conditions: doxycycline 2 mg/L + compound 10 μM; 20 clinical isolates
Procedure: MH agar plates were prepared, containing 2 mg/L doxycycline and 2 mg/L doxycycline in combination with compounds at a concentration of 10 μM. Bacteria, 5 μL of a suspension of each clinical isolate adjusted to 5 x 10^5 colony-forming units per ml were spotted on each plate and growth was monitored after a 18 h period of incubation at 37°C.
PA01 is a well-studied reference strain of P. aeruginosa, however to extend our study we considered strains recently isolated from hospitalized patients. Thus, we decided to test this combination of doxycycline (2mg/L) with polyamino-isoprenic compounds (10 μM) on twenty clinical isolates recently isolated from the HIA-Laveran (see M&M section and S1 Table).

human fibroblasts = experiment: WST-1 cytotoxicity test, fibroblasts; format: cell-based; conditions: Homo sapiens, Fibroblast; WST1, 24 h; mean +/- SD, 2 independent experiments
Procedure: (§1) CHO-K1 cells (ATCC-LGC Standards Sarl (Molsheim, France) and human fibroblasts (Clinisciences, Paris, France) were maintained in McCoy’s 5A and DMEM media, respectively, supplemented with 10% bovine calf serum, 2 mM glutamine, and 100 U/mL/10 μg/mL penicillin/streptomycin. They were incubated at 37°C in a humidified atmosphere containing 5% CO2. The cell lines were seeded in 96-well plates and incubated overnight. The cytotoxic effects of compounds were assessed by the colorimetric WST-1 cell proliferation assay as previously described. Briefly, a range of compound concentrations from 30 μM to 1200 μM was added to triplicate cultures, and cells were incubated at 37°C for 24 h. At the end of the incubation period, cultures were washed three times with phosphate buffer saline (PBS) and incubated in fresh culture medium containing 10% WST-1 for an additional 30 min. Cell viability was evaluated by measuring the WST-1 absorbance at 450 nm in a microplate spectrophotometer MRX1 II (Dynex technologies, Chantilly, VA, USA). The Inhibitory Concentration 50% (IC50) was chosen to evaluate the cytotoxicity of compounds. IC50 was defined as the concentration of a compound that induced a 50% decrease in viable cells. Doxorubicin was used as a positive control.

P. aeruginosa PA01 (wt) = experiment: Antibiotic susceptibility testing (broth micro-dilution MIC), strain PA01; format: cell-based, Pseudomonas aeruginosa; conditions: Pseudomonas aeruginosa, read-out: Minimal Inhibitory Concentration
Procedure: (§2) Experiments were performed on the BAC-SCREEN platform of the UMR-MD1, with a Freedom EVO 150 liquid handling system (Tecan, Lyon, France).
(§3) The same experiment was performed using chloramphenicol (4 mg/L) in combination with 3 (10 μM final concentration). […] These experiments were performed to study the effect of our compounds on the natural resistance of P. aeruginosa. […] Experiments were performed with the ß-lactams ceftazidime and ticarcillin and ciprofloxacin and amikacin.

[2] = system: P. aeruginosa PT629 (Mex AB overproducer); experiment: Antibiotic susceptibility testing (broth micro-dilution MIC), strain PT629; format: cell-based, Pseudomonas aeruginosa; conditions: Pseudomonas aeruginosa, read-out: Minimal Inhibitory Concentration
Procedure: as §2
(§4) We concluded that compound 3 was the best compound and suitable for a more detailed study. The same experiment was performed using chloramphenicol (4 mg/L) in combination with 3 (10 μM final concentration). Amongst the 20 clinical isolates, the growth of 15 (75%) was impaired, while 5 (25%) were resistant (data not shown). These experiments were performed to study the effect of our compounds on the natural resistance of P. aeruginosa. In addition, we were wondering if compound 3 could also increase susceptibility to other antibiotic families including ß-Lactams, fluoroquinolones and aminoglycosides, that are representative of the main classes of anti-pseudomonal agents. Experiments were performed with the ß-lactams ceftazidime and ticarcillin and ciprofloxacin and amikacin. […] . […] To better characterize compound 3, we first searched for the minimum concentration of compound that allowed killing of bacteria by doxycycline, and PAßN was used as the reference molecule.

CHO-K1 cells = experiment: cells; format: cell-based, Chinese Hamster; conditions: Cricetulus griseus, CHO-K1; WST1, 24 h; mean +/- SD, 2 independent experiments
Procedure: as §1

[3] = system: P. aeruginosa FB1 (Mex B deleted); experiment: Antibiotic susceptibility testing (broth micro-dilution MIC), strain FB1; format: cell-based; conditions: Pseudomonas aeruginosa, read-out: Minimal Inhibitory Concentration
Procedure: as §2

[4] = system: P. aeruginosa PA01 ERY^R (Mex CD overproducer); experiment: microbe, parasite or virus in culture; format: cell-based, Pseudomonas aeruginosa; conditions: Pseudomonas aeruginosa, read-out: Minimal Inhibitory Concentration
Procedure: as §2, §3

[5] = system: P. aeruginosa PA0-7H (Mex EF overproducer); experiment: Antibiotic susceptibility testing (broth micro-dilution MIC), strain PA0-7H; format: cell-based, Pseudomonas aeruginosa; conditions: Pseudomonas aeruginosa, read-out: Minimal Inhibitory Concentration
Procedure: as §2, §4

[6] = system: P. aeruginosa CMZ091 (Mex XY overproducer); experiment: Antibiotic susceptibility testing (broth micro-dilution MIC), strain CMZ091; format: cell-based, Pseudomonas aeruginosa; conditions: Pseudomonas aeruginosa, read-out: Minimal Inhibitory Concentration
Procedure: as §2, §4

SMILES	isolates with doxycycline susceptibility restored [1]	IC50 (human fibroblasts)	MIC (P. aeruginosa PA01 (wt))	MIC [2]	IC50 (CHO-K1 cells)	MIC [3]	MIC [4]	MIC [5]	MIC [6]
CC(C)=CCCC(C)=CCCC(C)=CCNCCCN(CCCN)CCCN [Compound 4]	88%	136 ± 7.9 µM	49 µg/mL and 125 µM	49 µg/mL and 125 µM	363 ± 20.3 µM	49 µg/mL and 125 µM	25 µg/mL and 62.5 µM	49 µg/mL and 125 µM	49 µg/mL and 125 µM
COc1cccc2c1C(=O)c1c(O)c3c(c(O)c1C2=O)C[C@@](O)(C(=O)CO)C[C@@H]3O[C@H]1C[C@H](N)[C@H](O)[C@H](C)O1 [Doxorubicin, reference compound]	–	12.4 ± 2.1 µM	–	–	48.3 ± 6.8 µM	–	–	–	–
